Assays:
Assay type in all cases: cell-based, human
[1] = system: LNCaP prostate cancer cells; assay: Apoptosis detection, annexin V and propidium iodide; conditions: 48 h, concentration approximate to IC50
Experimental: (§1) To further evaluate the anticancer activity of thiosemicarbazide derivative AB2 in G-361 and LNCaP cell lines, cell cycle analysis by image cytometry and detection of apoptosis using annexin V and propidium iodide was performed. Analyses of the action of AB2 on the distribution of cells in different phases of the cell cycle indicated a significant increase in the population of cells in the sub-G1 phase compared to the control cultures, in both tested prostate and melanoma cells. This population increased from 7% and 5% in control cells to 26% and 27% after exposure to AB2 in LNCaP and G-361 cells, respectively (Figure 8A). The increase in the cell population in the sub-G1 phase indicates the presence of apoptosis or necrosis in the investigated cells and not a significant inhibition of cell proliferation, i.e., a cytostatic effect.
(§2) In prostate cancer cells, the percentage of early apoptotic cells substantially elevated after AB2 treatment compared with the control group, indicating the initial activation of the apoptotic pathway. […] The percentage of cells in the early phase of apoptosis is approximately 36% and 28% in LNCaP and G-361 cells, respectively (Figure 8B). At the same time, the population of cells in late apoptosis increased in both cell lines, implying a progression of the apoptotic process after AB2 exposure. […]

[2] = system: G-361 melanoma cells; assay: as above; conditions: G-361, 48 h, concentration approximate to IC50
Experimental: as §1, §2

[3] = system: MDA-MB-231 breast cancer cell line; assay: MTT cytotoxicity assay; conditions: 48 h treatment
Experimental: (§3) These cancer cell lines comprised prostate cancer (PC-3, DU-145, LNCaP), melanoma (SK-MEL28, A375, G-361), breast cancer (MCF-7, MDA-MB-231), and lung cancer (NCI-H1563). The MTT assay was carried out across a wide range of concentrations for 48 h.
(§4) The research was conducted on one primary cell line: BJ (fibroblast) and four types of cancerous ones: three prostate cancer cell lines (PC-3, DU-145, LNCaP); 3 Melanoma cell lines (MEL-28, A375, G-361); 2 breast cancer cell lines (MCF-7, MDA-MB-23) and one lung cancer cell line (NCI-H1563). All cell lines were obtained from the American Type Culture Collection (ATCC, Manassas, VA, USA) and were grown in media (Corning, New York, NY, USA) according to ATCC guidelines. The culture media was enriched with 10% heat-inactivated fetal bovine serum (Life Technologies, Carlsbad, CA, USA) and antibiotics: penicillin (100 units) and streptomycin (100 μg/mL) from Sigma-Aldrich (St. Louis, MO, USA). The cells were incubated at 37 °C with 5% CO2 in air.
(§5) The cytotoxic analysis of thiosemicarbazides (TSC) (AB1–AB6) and semicarbazides (SC) (AB7–AB12) was conducted in various concentrations. […] The cells were treated with compounds or DMSO as a vehicle in control cultures for 48h. IC50 values were determined using the AAT Bioquest IC50 calculator (AAT Bioquest, Inc., Pleasanton, CA, USA, Quest Graph™ EC50 Calculator. https://www.aatbio.com/tools/ec50-calculator) (accessed on 7 October 2024).
(§6) The cytotoxic activity of the thiosemicarbazides and semicarbazides was measured using the MTT colorimetric assay (MTT Cell Proliferation Assay Kit—Invitrogen, Waltham, MA, USA). The cells were seeded in the 96-well plates at a density of 1.5 × 10^5 cells/mL. After reaching 70–80% of confluence, the tested compounds in a wide range of concentrations were added. Plates were incubated for 48 h at 37 °C in 5% CO2 air. Then, […] tetrazolium salt (3-(4,5-dimethylthiazol-2-yl)-2,5-diphenyltetrazolium bromide)—MTT reagent (0.5 mg/mL) dissolved in PBS was added to each well for 4 h. The MTT solution was then removed from above the water-insoluble purple formazan crystals, which were then dissolved in DMSO (dimethyl sulfoxide, […]; POCH, Gliwice, Poland). The absorbance value of obtained solutions was measured using a PowerWave ™ microplate spectrophotometer (Bio-Tek Instruments, Winooski, VT, USA) at a wavelength of 570 nm. Each cytotoxicity assay was repeated three times in triplicates.

[4] = system: MCF-7 breast cancer cell line; assay: MTT cytotoxicity assay; conditions: 48 h treatment
Experimental: as §3, §4, §5, §6

[5] = system: DU-145 prostate cancer cell line; assay: MTT cytotoxicity assay; conditions: 48 h treatment
Experimental: as §3, §4, §5, §6

[6] = system: G-361 melanoma cell line; assay: MTT cytotoxicity assay
Experimental: as §3, §4, §5, §6

[7] = system: A375 melanoma cell line; assay: MTT cytotoxicity assay; conditions: 48 h treatment
Experimental: as §3, §4, §5, §6

[8] = system: SK-MEL28 melanoma cell line; assay: MTT cytotoxicity assay; conditions: 48 h treatment
Experimental: as §3, §4, §5, §6

[9] = system: LNCaP prostate cancer cell line; assay: MTT cytotoxicity assay
Experimental: as §3, §4, §5, §6

[10] = system: PC-3 prostate cancer cell line; assay: MTT cytotoxicity assay; conditions: 48 h treatment
Experimental: as §3, §4, §5, §6

[11] = system: NCI-H1563 lung cancer cell line; assay: MTT cytotoxicity assay; conditions: 48 h treatment
Experimental: as §3, §4, §5, §6

O=C(COc1ccc(F)cc1)NNC(=S)Nc1ccccc1Cl [AB2]
late apoptotic cells (Q1ur) [1]: 37%
early apoptotic cells (Q1lr) [2]: ~28%
IC50 [3]: > 500 µM
IC50 [4]: > 500 µM
IC50 [5]: > 500 µM
selectivity index (SI), G-361 ([6]; IC50 normal cells (BJ) divided by IC50 G-361): 2.04
IC50 ([6]; MTT, 48 h treatment): 223 µM
IC50 [7]: 429 µM
IC50 [8]: 470 µM
selectivity index (SI), LNCaP ([9]; IC50 normal cells (BJ) divided by IC50 LNCaP): 4.19
IC50 ([9]; MTT, 48 h treatment): 108 µM
IC50 [10]: > 500 µM
IC50 [11]: > 500 µM
